Measured values taken from ChEMBL document CHEMBL1151432, “Increased susceptibility to colistin in hypermutable Pseudomonas aeruginosa strains from chronic respiratory infections” (Antimicrob Agents Chemother, 2007).

Columns and labels:
Assay type in all cases: functional, organism-based
[1] = tested on: Pseudomonas aeruginosa; assay: Antimicrobial activity against hypermutable Pseudomonas aeruginosa isolated from patients with chronic respiratory infection by Etest method
[2] = tested on: Pseudomonas aeruginosa; assay: Antimicrobial activity against mutS-deficient Pseudomonas aeruginosa PAO1 by Etest method
[3] = tested on: Pseudomonas aeruginosa; assay: Antimicrobial activity against Pseudomonas aeruginosa ATCC 27853 by Etest method
[4] = tested on: Pseudomonas aeruginosa; assay: Antimicrobial activity against non-hypermutable Pseudomonas aeruginosa isolated from intensive care unit patients with chronic respiratory infection by Etest method
[5] = tested on: Pseudomonas aeruginosa; assay: Antimicrobial activity against Pseudomonas aeruginosa PAO1 by Etest method
[6] = tested on: Pseudomonas aeruginosa; assay: Antimicrobial activity against non-hypermutable Pseudomonas aeruginosa isolated from patients with chronic respiratory infection by Etest method

MIC [1]: 0.48 µg/mL
MIC [2]: 2 µg/mL
MIC [3]: 1 µg/mL
MIC [4]: 2 µg/mL
MIC [5]: 2 µg/mL
MIC [6]: 0.92 µg/mL
Sequence: COLISTIN
